# Patent US9220791B2, “Bispecific intracellular delivery vehicles” (University of Washington, priority 2008, dated 2015)
# What was measured:
# Assay type in all cases: cell-based, human
# HeLa cells [1] = experiment: Fluorescent microscopic analysis of conjugate endosomal escape; conditions: Alexa-488 labeled peptide, 25 μM Antp-BH3, 15 minutes treatment
# Description: (§1) HeLas, human cervical carcinoma cells (ATCC CCL-2), were maintained in minimum essential media (MEM) containing L-glutamine, 1% penicillin-streptomycin, and 10% FBS. Prior to experiments, HeLas were allowed to adhere overnight in 8-well chamber slides (20,000 cells/well) for microscopy or 96-well plates (10,000 cells/well) for other assays. Polymer-peptide conjugates and controls were added in MEM with 1% FBS.
# An amine reactive Alexa-488 succinimidyl ester was mixed at a 1 to 1 molar ratio with the Antp-BH3 peptide in anhydrous dimethyl formamide (DMF). Unreacted fluorophore and organic solvent were removed using a PD 10 desalting column, and the fluorescently labeled peptide was lyophilized. Alexa-488 labeled Antp-BH3 was conjugated to the polymer as described above. Free peptide or polymer-peptide conjugate was applied to HeLas grown on chambered microscope slides at a concentration of 25 μM Antp-BH3. Cells were treated for 15 minutes, washed twice with PBS, and incubated in fresh media for an additional 30 minutes. The samples were washed again and fixed with 4% paraformaldehyde for 10 minutes at 37° C. Slides were mounted with ProLong Gold Antifade reagent containing DAPI and imaged using a fluorescent microscope.
# HeLa cells [2] = experiment: Lactate dehydrogenase (LDH) cytotoxicity assay; conditions: HeLa cervical cancer cells
# Description: Bioconjugate efficacy for triggering tumor cell death was determined using a lactate dehydrogenase (LDH) cytotoxicity assay. At the end of each time point, cells were washed two times with PBS and then lysed with cell lysis buffer (100 μL/well, 20 mM Tris-HCl, pH 7.5, 150 mM NaCl, 1 mM Na2EDTA, 1 mM EGTA, 1% Triton, 2.5 mM sodium pyrophosphate, 1 mM β-glycerophosphate, 1 mM sodium orthovanadate) for 1 hour at 4° C. 20 μl of lysate from each sample was diluted into 80 μl PBS, and LDH was quantified by mixing with 100 μL of the LDH substrate solution. Following a 10 minute incubation, LDH was determined by measuring absorbance at 490 nm. Percent viability was expressed relative to samples receiving no treatment.
# caspases 3 and 7 = experiment: Caspase 3/7 activity assay; conditions: HeLa, 30 minutes, 25 μM peptide (alone or as conjugate) or equivalent polymer, relative to no treatment
# Description: as §1
# Caspase 3/7 activation was measured using a commercially available assay kit. This assay utilizes a profluorescent caspase 3/7 substrate that once enzymatically cleaved becomes fluorescent allowing for determination of relative enzyme activity using a fluorescent plate reader. Here, HeLas were incubated for 30 minutes with 25 μM peptide (alone or as polymer conjugate) in addition to polymer alone in a quantity equivalent to the conjugate samples. Afterwards, a caspase 3/7 fluorigenic indicator was added directly to the culture media for each sample. Plates were shaken for 1 hour and then assayed using a fluorescent plate reader. Data were expressed as percent caspase activity relative to samples receiving no treatment.
# HeLa cells [3] = experiment: Flow cytometry evaluation of mitochondrial membrane potential (JC-1 dye); conditions: 2 hours, 10 μM peptide or equivalent conjugate or polymer alone, versus no treatment
# Description: as §1
# Loss of mitochondrial membrane potential, a known indicator for apoptosis, was assessed using the JC-1 dye. […] HeLas were incubated for 2 hours with 10 μM peptide or equivalent conjugate or polymer alone. JC-1 was added at a final concentration of 5 μg/mL and incubated for 15 minutes. Cells were washed 2 times with PBS, trypsinized, and resuspended in 0.5% BSA for flow cytometric analysis. Percent of cells displaying mitochondrial depolarization was quantified based on the number of green fluorescent cells that were negative for red fluorescence. Here, a significant loss of red fluorescent JC-1 aggregates and therefore a loss in mitochondrial polarization was detected following treatment with both the Antp-BH3 peptide and the polymer peptide conjugate (FIG. 8A).
# erythrocytes = conditions: pH 5.8
# Description: In order to assess the polymer's potential for endosomolytic activity, a membrane disruption assay was utilized to measure the capacity of the polymer to trigger pH-dependent disruption of lipid bilayer membranes as shown in FIG. 5. Whole human blood was drawn and centrifuged for plasma removal. The remaining erythrocytes were washed three times with 150 mM NaCl and resuspended into phosphate buffers corresponding to physiological (pH 7.4), early endosome (pH 6.6), and late endosome (pH 5.8) environments. The polymer (1-40 μg/mL) or 1% Triton X-100 was added to the erythrocyte suspensions and incubated for 1 hour at 37° C. Intact erythrocytes were pelleted via centrifugation, and the hemoglobin content within the supernatant was measured via absorbance at 541 nm. Percent hemolysis was determined relative to Triton X-100. Polymer hemolysis was quantified at concentrations ranging from 1-40 μg/mL relative to 1% v/v Triton X-100. This experiment was completed 2 times in triplicate, yielding similar results. The data shown represent a single experiment conducted in triplicate±standard deviation.
Substance,peptide intracellular localization (fluorescence pattern) (HeLa cells [1]),HeLa cell death / treatment effect (qualitative) (HeLa cells [2]),caspase 3/7 activation (caspases 3 and 7),increase in percent of cells exhibiting loss of mitochondrial polarity (HeLa cells [3]),hemolysis (erythrocytes)
"NH2-RQIKIWFQNRRMKWKKMGQVGRQLAIIGDDINRRYDSC-COOH (H-RQIKIWFQNRRMKWKKMGQVGRQLAIIGDDINRRYDSC-OH) [Antp-BH3 peptide, cell internalizing form of the Bak-BH3 peptide fused to Antennapedia peptide, carboxy-terminal cysteine]",punctate staining,negligible treatment effect,approximately 2.5 fold,approximately 4 fold,
Poly[HPMA]-b-[(PAA)(BMA)(DMAEMA)] [diblock copolymer],,,,,significant increase in hemolysis
